Assay results as given in patent publication US20160312240A1, “MODIFIED PYR/PYL RECEPTORS ACTIVATED BY ORTHOGONAL LIGANDS” (The Regents of the University of California, priority 2010, published 2016).

Experiments:
[1] = molecular target: T1, 6×-His-PYR1(27-18) (S47P, K59R, Y120H) (Arabidopsis thaliana, UniProt O49686, K59R/S47P/Y120H); assay: In vitro PP2C phosphatase activity assay (receptor activation = inhibition of PP2C); type: biochemical; settings: mutant 27-18; increasing concentrations; 10 mM Mn++ buffer; FIG. 1
T1 construct: 6x-His (N); made in house
T1 sequence (O49686 whole entry S47P/K59R/Y120H): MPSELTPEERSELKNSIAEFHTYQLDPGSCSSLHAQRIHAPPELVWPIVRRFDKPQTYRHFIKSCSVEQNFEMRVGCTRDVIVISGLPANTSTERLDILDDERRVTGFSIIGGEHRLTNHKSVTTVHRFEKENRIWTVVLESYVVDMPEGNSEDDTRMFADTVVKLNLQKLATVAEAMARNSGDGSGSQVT
T1 sequence (Q9CAJ0 23-511, stated change not applied, further chain): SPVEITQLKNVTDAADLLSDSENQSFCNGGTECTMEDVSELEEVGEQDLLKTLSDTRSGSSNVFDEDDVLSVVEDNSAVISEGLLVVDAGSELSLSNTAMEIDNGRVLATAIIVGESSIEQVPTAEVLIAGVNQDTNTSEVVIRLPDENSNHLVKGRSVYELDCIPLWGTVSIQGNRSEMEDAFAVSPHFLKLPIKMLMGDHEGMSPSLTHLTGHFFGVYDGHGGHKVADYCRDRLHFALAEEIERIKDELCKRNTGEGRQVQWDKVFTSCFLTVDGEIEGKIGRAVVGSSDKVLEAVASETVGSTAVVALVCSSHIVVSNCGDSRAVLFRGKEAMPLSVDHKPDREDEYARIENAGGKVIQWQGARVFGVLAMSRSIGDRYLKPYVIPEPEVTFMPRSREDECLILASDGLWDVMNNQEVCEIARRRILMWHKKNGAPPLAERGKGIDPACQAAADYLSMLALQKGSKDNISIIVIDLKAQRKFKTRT
Protocol: FIGS. 1A-1B. PYR1 mutant 27-18 confers responsiveness to fenhexamid but not ABA. Representative PYR1 mutant 27-18 (comprising S47P, K59R, and Y120H substitution mutations) was tested for responsiveness to abscisic acid (“ABA”) (FIG. 1A) and fenhexamid (FIG. 1B) at increasing concentrations as compared to a wild-type PYR1 control using an in vitro PP2C phosphatase activity assay.
To probe orthogonal receptor-ligand interactions further, recombinant protein was expressed for the fenhexamid-responsive mutant 27-18, which has three mutations in PYR1. 6×-His-PYR1(27-18) protein was expressed and purified alongside wild-type PYR1 protein. Both proteins were tested for their ability to inhibit PP2C activity in response to increasing concentrations of either ABA or fenhexamid using phosphatase activity assays, in which activation of the PYR/PYL receptor is monitored by inhibition of PP2C activity (FIG. 1).

[2] = tested on: 35S::GFP-PYL2 K64R,Y124H,M164I,V67I,V114I transgenic plants; assay: Quantitative RT-PCR of ABA reporter genes in seedlings; type: in vivo, Arabidopsis; settings: 100 μM fenhexamid for 6 hours, liquid culture; two independent transgenic lines; FIG. 5
Protocol: FIG. 5. Characterization of seedling transcriptional responses to fenhexamid in 35S::GFP-PYL2 K64R, Y124H, M164I, V67I, V114I transgenic plants. GFP-expressing T2 seedlings from respective lines were isolated after germination on petri plates and pre-screened by epi-fluorescence microscopy and subsequently grown in liquid media culture for 7 days, after which seedlings were treated with either 100 μM fenhexamid or control (0.1% DMSO) for 6 hours. RNA was subsequently isolated from the samples and utilized in quantitative RT-PCR experiments using three well-characterized ABA responsive transcripts (as described previously, Park et al., 2009). The primer sequences used for RT-PCR analysis were obtained from Roche and synthesized by Invitrogen. Quantitative RT-PCR was performed using SybrGreen on a BioRad CFX 96 real-time PCR instrument. mRNA copy number is expressed as copy number per nanogram total RNA. Data was normalized using an ACT2 gene. Copy number was established using a standard curve of known concentration of the target genes. […]
To further investigate ABA-response activation, we next tested GFP^+ transgenics (T2 segregants) and appropriate controls for activation of 3 ABA reporter genes (P5CS1, RD29A, and NCED3) in response to exposure to fenhexamid in liquid culture using quantitative RT-PCR methods. […]

[3] = molecular target: T2, PYL2 K64R,Y124H,M164I,V67I,V114I (Arabidopsis thaliana, UniProt O80992, K64R/M164I/V114I/V67I/Y124H); assay: Yeast two-hybrid assay, strain Y190 pAD-HAB1, X-gal staining; type: cell-based; settings: FIG. 3A
T2 construct: expressed in transfected cells; host or cells: Saccharomyces cerevisiae Y190 pAD-HAB1
T2 sequence (Q9CAJ0 23-511): as the sequence (Q9CAJ0 23-511, stated change not applied, further chain) above
T2 sequence (O80992 whole entry K64R/V67I/V114I/Y124H/M164I): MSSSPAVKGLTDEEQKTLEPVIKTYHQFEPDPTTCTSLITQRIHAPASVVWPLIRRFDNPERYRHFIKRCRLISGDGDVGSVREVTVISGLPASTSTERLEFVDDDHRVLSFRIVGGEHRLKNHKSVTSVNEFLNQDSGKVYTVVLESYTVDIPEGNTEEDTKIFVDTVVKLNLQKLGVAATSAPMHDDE
Protocol: FIGS. 3A-3B. […] FIG. 3A. […] In addition, pocket residue mutations at V114I and/or V67I were introduced. The mutants (listed on left side of panel) were constructed in pBD-PYL2 and transformed into Y190 pAD-HAB1 yeast cells. The transformants were then grown on increasing concentrations of fenhexamid and scored for responsiveness using X-gal staining, performed as described in Park et al., 2009. […] FIG. 3B. In vitro characterization of PYL2 K64R, Y124H, M164I, V67I, V114I mutant. Recombinant wild-type and mutant PYL2 proteins were produced as described previously and used in PP2C assays, as described previously (Park et al., 2009), with the exception that a 2:1 ratio of receptor for phosphatase was used.
PYR1 is a member of the PYR/PYL receptor protein family, which in Arabidopsis contains 14 members. […] Given the conserved nature of these residues, we speculated that fenhexamid sensitivity could be engineered into other receptor family members by mutating homologous residues in other PYR/PYL receptors. To test this, we introduced the homologous mutations in PYL2 (K64R, corresponding to K59R in PYR1; Y124H, corresponding to Y120H in PYR1; and M164I, corresponding to M158I in PYR1), creating the mutant PYL2^K64R,Y124H,M164I. […]

[4] = tested on: PYR1 variants 27B-1, 27B-2, 27B-3, 27B-4, 27B-7, 27B-8 (Table 7); assay: MAV99 growth selection, second round of shuffling (27B' library); type: cell-based, Arabidopsis; settings: 20 μM fenhexamid; media lacking uracil; Table 7 variants
Protocol: To improve fenhexamid receptor sensitivity, DNA shuffling was employed using the same general experimental scheme outlined previously. Briefly, equimolar amounts of plasmid DNA for the fenhexamid receptors shown in Table 1 were pooled and combined with an equimolar amount of the ePCR1 library DNA. The pooled templates were utilized for DNA shuffling, which was conducted as described in Example 1. A library (named “27”) of ˜400,000 shuffled variants was prepared. The DNA for this library was introduced into the MAV99 pAD-HAB 1 yeast strain as described above and the resulting yeast cells collected and grown on FOA-containing plates to reduce constitutive mutants in the library, yielding the 27B′ library. The 27B′ library was plated onto media lacking uracil but containing 20 μM fenhexamid. ˜50 positives were selected from these plates and subsequently retested on media lacking […] to distinguish constitutive mutants (i.e., false positives) from those mutants that grow specifically in response to fenhexamid (i.e., true positives). The PYR1 coding sequences for the true positives were sequenced to yield the following series of fenhexamid-responsive PYR1 variants (Table 7): […]

CC1(C(=O)Nc2ccc(O)c(Cl)c2Cl)CCCCC1 [fenhexamid]
Receptor activation (inhibition of PP2C activity) [1]: activated | Activation of 3 ABA reporter genes (P5CS1, RD29A, and NCED3) [2]: substantial induction | Response to fenhexamid in yeast assays [3]: respond | Growth in response to fenhexamid (selection) [4]: fenhexamid-responsive
